Source: patent publication US10357491B2, “Method of treating a brain tumor” (BeyondSpring Pharmaceuticals, Inc., priority 2015, dated 2019)

Legend:
[1] = test system: PDGF-induced gliomas that expressed G12D mutant KRAS; assay: Survival of mice with PDGF-induced gliomas expressing G12D mutant KRAS treated with Plinabulin; assay type: in vivo; conditions: Plinabulin 7.5 mg/kg i.p. twice per week for 10 weeks; control: Plinabulin diluent only; p=0.001
Text: Mice with PDGF-induced gliomas using RCAS/tv-a were generated. The mice were transgenic for expression of the RCAS receptor (tv-a) from the nestin promoter and having a background of ink4a/arf−/− and lox-stop-lox luciferase, were infected with RCAS-PDGF, or the combination of RCAS-PDGF and RCAS-KRAS that expressed G12D mutant KRAS. The resultant tumors occurred within the first 4-5 weeks in this background for PDGF alone, and about a week shorter for the tumors arising from the combination of PDGF and RCAS. The tumors had the histological characteristics of GBM and were identified by symptoms of lethargy and poor grooming, MRI scans using a T2 weighted sequence, or bioluminescence imaging with an IVIS system. For radiation therapy, mice were treated with 10Gy per day cranially for a single dose.
Plinabulin was tested on mice with PDGF-induced gliomas that expressed G12D mutant KRAS. 4-6 week old nestin-tv-a/ink4a-arf−/− mice were anesthetized with Isoflurane and injected with Df-1 cells transfected RCAS-PDGF-B-HA, RCAS-KRAS. Mice were injected with one microliter of a 1:1 mixture of 2×10^5 RCAS-PDGF-B-HA/RCAS-KRAS using a stereotactic frame via a 26-gauge needle attached to a Hamilton syringe. […] The mice were monitored for lethargy, hunched posture, appetite loss, outward signs of tumor growth, agitation, weight-loss and overall failure to thrive. […]

[2] = test system: PDGF-induced gliomas that expressed G12D mutant KRAS; assay: Survival of mice with PDGF-induced gliomas expressing G12D mutant KRAS treated with Plinabulin plus TMZ plus radiation; assay type: in vivo; conditions: Plinabulin 7.5 mg/kg i.p. twice a week for 10 weeks plus TMZ plus radiation 10gy x1; p=0.0149
Description: Mice with PDGF-induced gliomas that expressed G12D mutant KRAS were prepared using the procedures according to Example 1 and used in this experiment. 4-6 week old nestin-tv-a/ink4a-arf−/− mice were anesthetized with Isoflurane and injected with Df-1 cells transfected RCAS-PDGF-B-HA, RCAS-KRAS. Mice were injected with one microliter of a 1:1 mixture of 2×10^5 RCAS-PDGF-B-HA/RCAS-KRAS using a stereotactic frame via a 26-gauge needle attached to a Hamilton syringe. Cells were injected into the right frontal cortex, coordinates bregma 1.75 mm, Lat −0.5 mm, and a depth of 2 mm.
The mice were entered into two study groups. One group was treated with the combination of temozolomide (TMZ), Radiation and Plinabulin: radiation was given at 10gy×1, TMZ and Plinabulin 7.5 mg/kg in Plinabulin diluent was administered intraperitoneally twice a week on Monday and Thursday for 10 weeks. The other group, the control group, was treated with the combination of TMZ and radiation: radiation was given at 10gy×1, TMZ was administered intraperitoneally twice a week on Monday and Thursday for 10 weeks. the mice were monitored for lethargy, hunched posture, appetite loss, outward signs of tumor growth, agitation, weight-loss and overall failure to thrive. […]

## CC(C)(C)c1[nH]cnc1/C=c1\[nH]c(=O)/c(=C/c2ccccc2)[nH]c1=O [Plinabulin, (3Z,6Z)-3-Benzylidene-6-{[5-(2-methyl-2-propanyl)-1H-imidazol-4-yl]methylene}-2,5-piperazinedione]
[1]
  survival rate vs control group (FIG. 3): significantly better survival rate
[2]
  survival rate vs control group that received TMZ plus radiation (FIG. 4): significantly better survival rate
